Source: ChEMBL document CHEMBL2417422, “Modulation of human neutrophils' oxidative burst by flavonoids” (Eur J Med Chem, 2013)
Activity calls are given as the source filed them. The calls are words filed in the database; no cut-off is given here.

Key:
[1] = Cytotoxicity against human neutrophils assessed as cell viability at 100 uM after 1 hr by trypan blue exclusion assay; format: cell-based, Neutrophil; settings: read-out: Activity
Neutrophil [2] = test: Inhibition of oxidative burst in PMA-stimulated human neutrophils assessed as inhibition of HOCl-induced oxidation of APF after 6 mins by fluorescence assay; format: functional, cell-based; settings: 0.1 h
Neutrophil [3] = test: Inhibition of oxidative burst in PMA-stimulated human neutrophils assessed as inhibition of H2O2-induced oxidation of amplex red incubated for 5 mins prior to PMA challenge by fluorescence assay; format: functional, cell-based
Neutrophil [4] = test: Inhibition of oxidative burst in PMA-stimulated human neutrophils assessed as inhibition of ROS-induced luminol oxidation incubated for 5 mins prior to PMA challenge by chemiluminescence assay; format: functional, cell-based
Neutrophil [5] = test: Inhibition of oxidative burst in PMA-stimulated human neutrophils assessed as inhibition of superoxide anion radical-induced lucigenin oxidation incubated for 5 mins prior to PMA challenge by chemiluminescence assay; format: functional, cell-based
Neutrophil [6] = test: Inhibition of oxidative burst in PMA-stimulated human neutrophils assessed as inhibition of H2O2-induced oxidation of amplex red up to 100 uM incubated for 5 mins prior to PMA challenge by fluorescence assay; format: functional
Neutrophil [7] = test: Inhibition of oxidative burst in PMA-stimulated human neutrophils assessed as inhibition of H2O2-induced oxidation of amplex red at 40 uM incubated for 5 mins prior to PMA challenge by fluorescence assay; format: functional
Neutrophil [8] = test: Inhibition of oxidative burst in PMA-stimulated human neutrophils assessed as inhibition of superoxide anion radical-induced lucigenin oxidation up to 100 uM incubated for 5 mins prior to PMA challenge by chemiluminescence assay; format: functional
Neutrophil [9] = test: Inhibition of oxidative burst in PMA-stimulated human neutrophils assessed as inhibition of ROS-induced luminol oxidation at 25 uM incubated for 5 mins prior to PMA challenge by chemiluminescence assay; format: functional
Neutrophil [10] = test: Inhibition of oxidative burst in PMA-stimulated human neutrophils assessed as inhibition of ROS-induced luminol oxidation up to 100 uM incubated for 5 mins prior to PMA challenge by chemiluminescence assay; format: functional
Neutrophil [11] = test: Inhibition of oxidative burst in PMA-stimulated human neutrophils assessed as inhibition of HOCl-induced oxidation of APF up to 100 uM after 6 mins by fluorescence assay; format: functional, cell-based
[12] = biological target: T1, Myeloperoxidase (Homo sapiens) (UniProt P05164); test: Inhibition of MPO (unknown origin); settings: concentration not given here
T1 sequence (whole entry): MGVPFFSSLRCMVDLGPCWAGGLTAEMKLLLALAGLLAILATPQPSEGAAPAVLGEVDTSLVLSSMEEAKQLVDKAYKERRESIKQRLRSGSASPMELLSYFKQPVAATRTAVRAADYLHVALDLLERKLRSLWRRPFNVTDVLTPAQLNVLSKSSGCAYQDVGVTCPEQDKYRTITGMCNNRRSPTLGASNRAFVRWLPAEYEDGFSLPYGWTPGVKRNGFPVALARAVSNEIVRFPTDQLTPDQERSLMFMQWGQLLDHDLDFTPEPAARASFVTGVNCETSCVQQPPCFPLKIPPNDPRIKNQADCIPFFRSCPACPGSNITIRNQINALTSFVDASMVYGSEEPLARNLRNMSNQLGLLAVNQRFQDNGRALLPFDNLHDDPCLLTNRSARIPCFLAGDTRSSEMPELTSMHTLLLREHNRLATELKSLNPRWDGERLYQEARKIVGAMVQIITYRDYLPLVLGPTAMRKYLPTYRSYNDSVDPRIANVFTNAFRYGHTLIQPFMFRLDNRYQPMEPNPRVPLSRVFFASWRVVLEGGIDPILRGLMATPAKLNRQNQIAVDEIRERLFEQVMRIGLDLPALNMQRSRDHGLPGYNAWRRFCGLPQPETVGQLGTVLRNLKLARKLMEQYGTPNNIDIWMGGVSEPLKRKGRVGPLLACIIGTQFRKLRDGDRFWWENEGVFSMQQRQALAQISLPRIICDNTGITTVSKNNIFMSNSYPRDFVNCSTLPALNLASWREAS

Row | SMILES | IC50 (Neutrophil [2]) [µM] | IC50 (Neutrophil [3]) [µM] | IC50 (Neutrophil [4]) [µM] | IC50 (Neutrophil [5]) [µM] | inhibition [12] [%] | viability at 1 h, 100 µM [1] [%] | inhibition (INH) (Neutrophil [6]) [%] | inhibition at 40 µM (Neutrophil [7]) [%] | inhibition (Neutrophil [3]) | inhibition (INH) (Neutrophil [8]) [%] | inhibition at 25 µM (Neutrophil [9]) [%] | inhibition (INH) (Neutrophil [10]) [%] | inhibition (Neutrophil [11])
1 | O=c1c(O)c(-c2ccc(O)c(O)c2)oc2cc(O)cc(O)c12 [QUERCETIN] | 0.7 | 8 | 26 | 11.3 |  | > 98 |  |  |  |  |  |  | 
2 | O=C1CC(c2ccc(O)cc2)Oc2cc(O)cc(O)c21 (racemic) |  |  | 51.4 | 31 |  | > 98 | <40 |  |  |  |  |  | 
3 | O=c1cc(-c2ccc(O)cc2)oc2cccc(O)c12 |  |  | 18 | 67.8 |  | > 98 | <40 | 20 |  |  |  |  | 
4 | O=c1cc(-c2ccc(O)cc2)oc2ccccc12 |  |  | 40.3 |  |  | > 98 |  |  | inactive | <40 |  |  | 
5 | COc1cc(-c2cc(=O)c3c(O)cc(O)cc3o2)ccc1O [CHRYSOERIOL] | 0.4 | 8.6 | 2.8 | 7.1 |  |  |  |  |  |  |  |  | 
6 | O=C1CC(c2ccc(O)c(O)c2)Oc2cc(O)cc(O)c21 (racemic) | 1.4 | 4 | 18 | 15.5 | 40 | > 98 |  |  |  |  |  |  | 
7 | O=c1cc(-c2ccccc2)oc2cc(O)ccc12 [7-HYDROXYFLAVONE] |  |  |  | 33 |  | > 98 | <40 |  |  |  |  | <40 | 
8 | NNC(=O)c1ccc(N)cc1 | 30.6 |  | 43.6 |  |  |  |  |  |  |  |  |  | 
9 | O=c1cc(-c2cccc(O)c2)oc2cc(O)ccc12 |  | 79.6 | 37.4 | 34.8 |  | > 98 |  |  |  |  |  |  | 
10 | O=c1cc(-c2ccc(O)c(O)c2)oc2cc(O)cc(O)c12 [LUTEOLIN] | 0.9 | 4 | 9.3 | 9.5 |  | > 98 |  |  |  |  |  |  | 
11 | O=c1cc(-c2cccc(O)c2)oc2cccc(O)c12 |  |  | 14.5 | 32 |  | > 98 | <40 | 20 |  |  |  |  | 
12 | O=c1cc(-c2ccc(O)cc2)oc2cc(O)ccc12 |  |  |  | 26.9 |  | > 98 | <40 |  |  |  |  | <40 | 
13 | O=c1cc(-c2cccc(O)c2)oc2cc(O)cc(O)c12 | 65.4 |  | 10 | 15.8 |  | > 98 | <40 |  |  |  |  |  | 

The remaining molecules from weak to strong by IC50 (Neutrophil [5]), led by results:

Row | IC50 (Neutrophil [2]) [µM] | IC50 (Neutrophil [3]) [µM] | IC50 (Neutrophil [4]) [µM] | IC50 (Neutrophil [5]) [µM] | inhibition [12] [%] | SMILES | viability at 1 h, 100 µM [1] [%] | inhibition (INH) (Neutrophil [6]) [%] | inhibition at 40 µM (Neutrophil [7]) [%] | inhibition (Neutrophil [3]) | inhibition (INH) (Neutrophil [8]) [%] | inhibition at 25 µM (Neutrophil [9]) [%] | inhibition (INH) (Neutrophil [10]) [%] | inhibition (Neutrophil [11])
14 |  |  |  | 96 |  | O=c1cc(-c2ccccc2)oc2cccc(O)c12 [5-HYDROXYFLAVONE] | > 98 |  |  | inactive |  | 30.1 | <40 | 
15 | 64.9 |  |  | 57 |  | O=c1cc(-c2ccccc2)oc2ccccc12 [FLAVONE] | > 98 |  |  | inactive |  |  | <40 | 
16 |  |  | 24 | 47 |  | O=c1cc(-c2cccc(O)c2)oc2ccccc12 | > 98 | <40 | 17 |  |  |  |  | 
17 | 3.33 |  | 57.6 | 16 |  | COc1ccc(-c2cc(=O)c3c(O)cc(O)cc3o2)cc1OC | > 98 | <40 |  |  |  |  |  | 
18 | 15.3 | 41.3 | 53.5 | 15.5 | 40 | O=C1c2c(O)cc(O)cc2O[C@H](c2ccc(O)c(O)c2)[C@H]1O [(+)-TAXIFOLIN] | > 98 |  |  |  |  |  |  | 
19 | 0.7 | 10.3 | 3.6 | 15 |  | COc1ccc(-c2cc(=O)c3c(O)cc(O)cc3o2)cc1O [DIOSMETIN] |  |  |  |  |  |  |  | 
20 | 5.2 | 3.7 | 13.5 | 14.7 |  | O=c1cc(-c2ccc(O)c(O)c2)oc2cc(O)ccc12 | > 98 |  |  |  |  |  |  | 
21 |  |  | 53 | 9.59 |  | O=c1cc(-c2ccccc2)oc2cc(O)cc(O)c12 [CHRYSIN] | > 98 |  |  | inactive |  |  |  | inactive
22 | 0.9 | 3.2 | 3 | 8.1 |  | O=c1cc(-c2ccc(O)c(O)c2)oc2ccccc12 | > 98 |  |  |  |  |  |  | 
23 | 12.3 | 16.2 | 24 | 7.7 |  | O=c1cc(-c2ccc(O)cc2)oc2cc(O)cc(O)c12 [APIGENIN] | > 98 |  |  |  |  |  |  | 
24 |  |  |  | 7 |  | COc1ccc(-c2cc(=O)c3c(O)cc(O)cc3o2)cc1 [ACACETIN] | > 98 |  |  | inactive |  | 26.7 | <40 | inactive
25 | 0.39 | 3.2 | 1.6 | 4.9 |  | O=c1cc(-c2ccc(O)c(O)c2)oc2cccc(O)c12 | > 98 |  |  |  |  |  |  | 
